From patent publication US20240116946A1 (Gilead Sciences, Inc., priority 2022, published 2024)
Where two headings read alike, the source gives them in different places.

Assays:
[1] = target: recombinant SARS-CoV-2 Main protease (Mpro) (Severe acute respiratory syndrome coronavirus 2 (2019-nCoV) (SARS-CoV-2), UniProt P0DTD1); experiment: Cov Mpro Biochemical IC50 Assay; settings: read-out: MPro IC50
SARS-CoV-2-NLuc = experiment: microbe, parasite or virus in culture; format: cell-based, SARS Coronavirus 2
[2] = recombinant SARS-CoV-2 Mpro 7.5 nM, fluorogenic peptide substrate 40 μM
[3] = Severe acute respiratory syndrome coronavirus, 48 h, read-out: MPro EC50
[4] = Severe acute respiratory syndrome coronavirus, 48 h; read-out: MPro EC50
[5] = recombinant SARS-CoV-2 Mpro, fluorogenic peptide substrate

Structure (SMILES) | IC50 [1, 2] [nM] | EC50 (SARS-CoV-2-NLuc; [3]) [nM] | EC50 (SARS-CoV-2-NLuc; [4]) [nM] | EC50 (SARS-CoV-2-NLuc; read-out: MPro EC50) [nM] | IC50 [1, 5] [nM]
Cc1cc(Cl)c(-c2cc3[nH]c(=O)n(-c4cncc5ccccc45)c(=O)c3s2)cc1C#N [Example 548] | 7.55 | 114 | – | – | –
COc1ccc(Cl)c(-c2cc3[nH]c(=O)n(-c4cncc5cccc(Cl)c45)c(=O)c3s2)c1 [Example 601] | < 2.54 | 14.7 | – | – | –
COc1ccc(Cl)c(-c2cc3[nH]c(=O)n(-c4cncc5ccoc45)c(=O)c3s2)c1 [Example 493] | 7.94 | 33.5 | – | – | –
Cc1cncc(-n2c(=O)c3sc(-c4cc(F)ccc4C#N)cc3n(CCC#N)c2=O)c1 [Example 881] | 11.7 | – | 91.9 | – | –
COc1cc(-c2cc3c(s2)c(=O)n(-c2cncc4c2c(C)nn4C)c(=O)n3CCC#N)c(Cl)cc1F (single isomer, unassigned) [Example 1044, 3-(6-(2-chloro-4-fluoro-5-methoxyphenyl)-3-(1,3-dimethyl-1H-pyrazolo[3,4-c]pyridin-4-yl)-2,4-dioxo-3,4-dihydrothieno[3,2-d]pyrimidin-1(2H)-yl)propanenitrile] | 3.55 | – | – | 3.21 | –
COc1ccc(Cl)c(-c2cc3[nH]c(=O)n(-c4cncc5cc(Cl)ccc45)c(=O)c3s2)c1 [Example 591] | 12.2 | 142 | – | – | –
COc1ccc(Cl)c(-c2cc3[nH]c(=O)n(-c4cncc5nn(CC(F)(F)F)cc45)c(=O)c3s2)c1 [Example 501] | 14.8 | – | 93.9 | – | –
CC(=O)N1CC2(C1)CN(c1ccc3cncc(-n4c(=O)[nH]c5cc(-c6ccccc6Cl)sc5c4=O)c3c1)C2 [Example 422] | 7.75 | – | 134 | – | –
COc1ccc(Cl)c(-c2cc3[nH]c(=O)n(-c4cncc5ccc(N6CCS(=O)(=O)CC6)nc45)c(=O)c3s2)c1 [Example 458] | 12.1 | 188 | – | – | –
COc1ccc(C#N)c(-c2ccc3c(=O)n(-c4cncc5cccnc45)c(=O)[nH]c3c2)c1 [Example 218] | – | – | 82.8 | – | 20.9
COc1cc(-c2cc3c(s2)c(=O)n(-c2cncc4ccccc24)c(=O)n3CCCC#N)c(Cl)cc1F [Example 660] | 17.6 | 16.7 | – | – | –
Cc1c(F)cncc1-n1c(=O)c2sc(-c3cc(F)c(F)cc3Cl)cc2n(CCC#N)c1=O [Example 850] | 26.7 | – | 54.2 | – | –
COc1cc(-c2cc3c(s2)c(=O)n(-c2cncc4cnn(C)c24)c(=O)n3C)c(Cl)cc1F [Example 898, 6-(2-chloro-4-fluoro-5-methoxyphenyl)-1-methyl-3-(1-methyl-1H-pyrazolo[4,3-c]pyridin-7-yl)thieno[3,2-d]pyrimidine-2,4(1H,3H)-dione] | 13 | 11.9 | – | – | –
COc1ccc(-c2cc3[nH]c(=O)n(-c4cncc5ccccc45)c(=O)c3s2)c(Cl)c1 [Example 722] | 34 | 68.8 | – | – | –
COc1ccc(C#N)c(-c2ccc3c(=O)n(-c4cncc5ccccc45)c(=O)[nH]c3c2)c1 [Example 308, 2-[3-(4-isoquinolyl)-2,4-dioxo-1H-quinazolin-7-yl]-4-methoxy-benzonitrile] | – | 31.2 | – | – | 16.2
N#Cc1ccccc1-c1cc2[nH]c(=O)n(-c3cncc4ccccc34)c(=O)c2cc1F [Example 67] | – | 213 | – | – | 88.8
COc1cc(-c2cc3c(s2)c(=O)n(-c2cncc4ccccc24)c(=O)n3CC(C)C#N)c(Cl)cc1F (centres unmarked) [Example 1096, 3-(6-(2-chloro-4-fluoro-5-methoxyphenyl)-3-(isoquinolin-4-yl)-2,4-dioxo-3,4-dihydrothieno[3,2-d]pyrimidin-1(2H)-yl)-2-methylpropanenitrile] | 10.4 | – | 15.9 | – | –
COc1cc(-c2cc3[nH]c(=O)n(-c4cncc5ccccc45)c(=O)c3cc2F)c(C#N)cc1F (single isomer, unassigned) [Example 510, 5-fluoro-2-[6-fluoro-3-(4-isoquinolyl)-2,4-dioxo-1H-quinazolin-7-yl]-4-methoxy-benzonitrile] | 7.05 | – | – | 16.2 | –
COc1ccc(Cl)c(-c2cc3[nH]c(=O)n(-c4cncc5scc(C)c45)c(=O)c3s2)c1 (single isomer, unassigned) [Example 1052, 6-(2-chloro-5-methoxyphenyl)-3-(3-methylthieno[2,3-c]pyridin-4-yl)thieno[3,2-d]pyrimidine-2,4(1H,3H)-dione] | 3.67 | – | – | 2.66 | –
N#Cc1ccccc1-c1cc2[nH]c(=O)n(-c3cncc4ccccc34)c(=O)c2s1 [Example 530, 2-(3-(isoquinolin-4-yl)-2,4-dioxo-1,2,3,4-tetrahydrothieno[3,2-d]pyrimidin-6-yl)benzonitrile] | 12 | 84.3 | – | – | –
COc1cc(-c2cc3c(s2)c(=O)n(-c2cncc4ncccc24)c(=O)n3CCC#N)c(Cl)cc1F [Example 915] | 8.9 | 19.4 | – | – | –
COc1ccc(Cl)c(-c2cc3[nH]c(=O)n(-c4cncc5c4CCCO5)c(=O)c3s2)c1 [Example 599] | 4.98 | 48.9 | – | – | –
COc1ccc(C#N)c(-c2cc3c(cc2F)c(=O)n(-c2cncc4ccccc24)c(=O)n3CCC#N)c1 [Example 902] | 87.3 | 134 | – | – | –
O=c1[nH]c2cc(-c3ccccc3Cl)sc2c(=O)n1-c1cncc2ccc(N3C[C@@H]4C[C@H]3CO4)cc12 [Example 393] | 9 | 12.2 | – | – | –
COc1cc(-c2cc3[nH]c(=O)n(-c4cncc5ccncc45)c(=O)c3s2)c(Cl)cc1F [Example 739] | 9.45 | – | 17.5 | – | –

Structure (SMILES) | IC50 [1, 2] [nM] | EC50 (SARS-CoV-2-NLuc; [3]) [nM] | EC50 (SARS-CoV-2-NLuc; [4]) [nM] | EC50 (SARS-CoV-2-NLuc; read-out: MPro EC50) [nM] | IC50 [1, 5] [nM]
Cn1cc2cc(-c3cccc(Cl)c3-c3ccc4c(=O)n(-c5cncc6ccccc56)c(=O)[nH]c4c3)ccc2n1 [Example 247] | – | 30.4 | – | – | 63
Cn1ncc2cncc(-n3c(=O)c4sc(-c5ccc(Cl)cc5C#N)cc4n(CCC#N)c3=O)c21 [Example 824] | 22.5 | – | 79.9 | – | –
CS(=O)(=O)c1cncc(-c2cccc(Cl)c2-c2ccc3c(=O)n(-c4cncc5ccccc45)c(=O)[nH]c3c2)c1 [Example 203] | – | 26.9 | – | – | 11.1
COc1cc(-c2cc3[nH]c(=O)n(-c4cncc5ccsc45)c(=O)c3s2)c(Cl)cc1F [Example 482] | < 2.54 | 4.44 | – | – | –
COc1cc(-c2cc3c(s2)c(=O)n(-c2cncc(Cl)c2C)c(=O)n3CCC#N)c(Cl)cc1F [Example 927, 3-[6-(2-chloro-4-fluoro-5-methoxy-phenyl)-3-(5-chloro-4-methyl-3-pyridyl)-2,4-dioxo-thieno[3,2-d]pyrimidin-1-yl]propanenitrile] | 7.02 | 6.88 | – | – | –
Cc1c(-c2ccccc2Cl)sc2c(=O)n(-c3cncc4ccccc34)c(=O)[nH]c12 [Example 76] | – | 7400 | – | – | 2780
COc1ccc(Cl)c(-c2cc3[nH]c(=O)n(-c4cncc5ccsc45)c(=O)c3s2)c1 [Example 480] | 4.97 | 10.2 | – | – | –
N#CCCn1c(=O)n(-c2cncc(C(F)(F)F)c2)c(=O)c2sc(-c3ccccc3C#N)cc21 [Example 890] | 75 | – | 247 | – | –
Cc1csc2cncc(-n3c(=O)[nH]c4cc(-c5c(Cl)cccc5-c5cncc(C#N)c5)sc4c3=O)c12 [Example 674] | 3.85 | 2.82 | – | – | –
O=c1[nH]c2cc(-c3ccccc3Cl)sc2c(=O)n1-c1cnccc1N1CCOCC1 [Example 139] | – | 595 | – | – | 108
COc1cc(F)c(Cl)c(-c2ccc3c(=O)n(-c4cncc5ccccc45)c(=O)[nH]c3c2)c1 [Example 212] | – | 752 | – | – | 831
Cc1cc(-c2cc3[nH]c(=O)n(-c4cncc5ccccc45)c(=O)c3s2)c(Cl)cc1F [Example 350] | – | 49.2 | – | – | 17.2
O=c1[nH]c2cc(-c3cc4c(cc3Cl)OCO4)sc2c(=O)n1-c1cncc2ccccc12 [Example 347] | – | 642 | – | – | 441
COc1cc(-c2cc3c(s2)c(=O)n(-c2cncc(OC(F)F)c2)c(=O)n3CCC#N)c(Cl)cc1F [Example 872] | 8.39 | 37.3 | – | – | –
COc1ccc(Cl)c(-c2cc3[nH]c(=O)n(-c4cncc5c4cnn5CC(F)(F)F)c(=O)c3s2)c1 [Example 499] | 1920 | 6950 | – | – | –
Cc1nc2cncc(-n3c(=O)c4sc(-c5ccc(F)cc5Cl)cc4n(CCC#N)c3=O)c2n1C (single isomer, unassigned) [Example 966, 3-(6-(2-chloro-4-fluorophenyl)-3-(1,2-dimethyl-1H-imidazo[4,5-c]pyridin-7-yl)-2,4-dioxo-3,4-dihydrothieno[3,2-d]pyrimidin-1(2H)-yl)propanenitrile] | 309 | – | – | > 1000 | –
COc1cc(-c2cc3c(s2)c(=O)n(-c2cncc4nn(C)cc24)c(=O)n3CCC#N)c(Cl)cc1F [Example 909] | 5.94 | 12.3 | – | – | –
COc1cncc(-n2c(=O)[nH]c3cc(-c4ccccc4Cl)sc3c2=O)c1 [Example 378] | – | – | 359 | – | 304
COc1cnc(C#N)c(-c2cc3c(s2)c(=O)n(-c2cncc4cnn(C)c24)c(=O)n3CCC#N)c1 [Example 777] | 24.6 | 253 | – | – | –
CCS(=O)(=O)c1cccc(-c2cccc(Cl)c2-c2ccc3c(=O)n(-c4cncc5ccccc45)c(=O)[nH]c3c2)c1 [Example 284] | – | 35.6 | – | – | 25.8
COc1cc(-c2cc3[nH]c(=O)n(-c4cncc5nc(C)sc45)c(=O)c3s2)c(Cl)cc1F [Example 652] | 22.5 | 48.1 | – | – | –
O=c1[nH]c2sc(-c3ccccc3Cl)nc2c(=O)n1-c1cncc2ccccc12 [Example 78] | – | 9530 | – | – | 404
COc1cc(-c2cc3[nH]c(=O)n(-c4nncc5ccccc45)c(=O)c3s2)c(Cl)cc1F [Example 744] | 21.7 | – | 85 | – | –
COc1cc(-c2cc3c(s2)c(=O)n(-c2cncc(Cl)c2)c(=O)n3CCC#N)c(C#N)cc1F [Example 866] | 5.61 | 12.9 | – | – | –
